How the values were obtained:
[1] = experimental subarachnoid bleeding in rabbits, basal arteria thickness ratio; format: in vivo, rabbit; details: for Basal arteria thickness ratio: after vs before subarachnoid bleeding; for suppression of cerebrovascular contraction subsequent to subarachnoid bleeding: rabbits, i.v.
Experimental: By injecting previously collected blood into the postcisterna of a rabbit, subarachnoid bleeding similar to human subarachnoid bleeding can be produced experimentally in the rabbit. The therapeutic effect of a pharmaceutical composition for treating cerebrovascular contraction is judged by comparing the thickness of the basal arteria before and after the experimental production of subarachnoid bleeding.
Subarachnoid bleeding was produced experimentally in rabbits, and 20 minutes thereafter 3 mg, 6 mg and 9 mg of 6-amidino-2-naphthyl p-guanidinobenzoate dimethanesulfonate [drawing 12] were respectively administered intravenously to the rabbits.

[2] = intermittent intravenous administration to subarachnoid bleeding patients after acute phase operation (DIND, CT low, Angiographic Spasm Scale, Glasgow Outcome Scale); format: in vivo, human (patients); details: for CT low due to spasm: control 43%; for good recovery (Glasgow Outcome Scale) / vegetative survival+death (Glasgow Outcome Scale): control 36%
Experimental: We have tried intermittent intravenous administration of FUT-175 (nafamostat mesilate, the present compound) for the purpose of prevention and/or treatment of cerebrovascular contraction after acute phase operation on subarachnoid bleeding patients. A dosage of 40-160 mg/day was chosen by converting the amount of drug per kg rabbit weight to amount of drug per kg of human weight.
The subjects were the ruptured cerebral aneurysm patients who had acute phase operation and belonged to Group 3 or 4 in Fisher's preoperative CT classification (Fisher, C. M., et al., "Cerebral vasospasm with ruptured saccular aneurysm-Clinical manifestations" (1977), Neurosurgery, volume 1, pages 245-248). […] Also, the subjects were limited to the cases of Grades II-IV in Hunt and Hess gravity grating without modification by previous history and to the patients to whom administration could be started within 48 hours after crisis (Hunt, W. E., et al., "Surgical risk as related to time of intervention in the repair of intracranial aneurysms" (1968), J. Neurosurg., volume 28, pages 14-20).
The compound was given to the subjects by intermittent intravenous administration starting immediately after operation. In Group A, the compound was administered twice a day, 20 mg per administration (40 mg in total daily dosage) for 4 days; four times a day, 20 mg per administration (80 mg in total daily dosage) for 4 days in Group B; and four times a day, 40 mg per administration (160 mg in total daily dosage) for 4 days in Group C. Each dose of the compound was dissolved in 100 ml of physiological saline. Time of one intravenous administration was normally 2 hours.
The control cases were the serious subarachnoid bleeding patients after acute phase clipping operation performed in our clinic in 1989. Both groups were substantially commensurate with each other in gravity grating and CT classification (Fisher classification by computed tomography), but in the control group there were slightly more cases of mycotic cerebral aneurysm than in the treated group.
There was no difference between the control and treated groups in substances of treatment excepting administration of the present compound and in operating staff. The effect of the treatment was judged by occurrence or non-occurrence of delayed ischemic neurological deficit (DIND), low-density CT area due to vasospasm and caliber change in arteries as observed by cerebral angiography conducted in the period from day 5 to day 8 (post occurrence of cerebrovascular contraction) which is considered the peak period of development of vasospasm.
For judgement of spasm in the control group, an Angiographic Spasm Scale (ASS) of the following grading was prepared:
Grade 0 (none): No caliber change in any arteries,
Grade 1 (mild): Vascular contraction is localized,
Grade 2 (moderate): Multisegmental vascular contraction is observed, and
Grade 3 (severe): Severe contraction exceeding 50% is seen in multisegmental sites (Weir, B., et al., "Time course of vasospasm in man" (1978), J. Neurosurg., volume 48, pages 173-178; Kim, H., et al., "Time course of vasospasm--Its clinical significance" (1979), Neuro. Med. Chir. (Tokyo), volume 19, pages 95-102).
The Glasgow Outcome Scale (GOS) was used to evaluate the outcome one month after crisis. According to GOS, there are five degrees: 1-death, 2-vegetative state, 3-severe disability, 4-moderate disability, 5-good recovery.

[3] = system: circulating blood coagulating action; assay: bleeding and coagulation times measured during intravenous administration in treated groups B and C; format: in vivo, human (patients)
Description: The present compound is a serine protease inhibitor which can inhibit various kinds of serine protease including C 1r, C 1s, factor B and factor D of complement system, factor XIIa, factor Xa and thrombin of coagulation system, plasma kallikrein of quinine system, plasmin of fibrinolytic system, trypsin, etc. […] It was considered that the administration method employed in this experiment would give no influence on circulating blood coagulating action of the compound.

[4] = system: platelet agglutination; details: cited from earlier work
[5] = system: C 1r; details: complement system; cited from earlier work
[6] = system: C 1s; details: complement system; cited from earlier work
[7] = system: factor B of complement system; details: cited from earlier work
[8] = system: factor D of complement system; details: cited from earlier work
[9] = system: factor XIIa; details: coagulation system; cited from earlier work
[10] = system: factor Xa; details: coagulation system; cited from earlier work
[11] = system: thrombin; details: coagulation system; cited from earlier work
[12] = system: plasma kallikrein; details: quinine system; cited from earlier work
[13] = system: plasmin; details: fibrinolytic system; cited from earlier work
[14] = system: trypsin; details: cited from earlier work
[15] = cited from earlier work
[16] = Groups A, B and C, one month after crisis
[17] = Groups B and C (higher dosage), one month after crisis
[18] = after serious subarachnoid bleeding

## CS(=O)(=O)O.CS(=O)(=O)O.N=C(N)Nc1ccc(C(=O)Oc2ccc3cc(C(=N)N)ccc3c2)cc1 [6-amidino-2-naphthyl p-guanidinobenzoate dimethanesulfonate]
[1]; 3 mg/kg i.v., 1st day
  Basal arteria thickness ratio: 86%
[1]; 3 mg/kg i.v., 2nd day
  Basal arteria thickness ratio: 79%
[1]; 3 mg/kg i.v., 3rd day
  Basal arteria thickness ratio: 85%
[1]; 3 mg/kg i.v., 4th day
  Basal arteria thickness ratio: 88%
[1]; 3 mg/kg i.v., 5th day
  Basal arteria thickness ratio: 90%
[1]; 6 mg/kg i.v., 1st day
  Basal arteria thickness ratio: 97%
[1]; 6 mg/kg i.v., 2nd day
  Basal arteria thickness ratio: 95%
[1]; 6 mg/kg i.v., 3rd day
  Basal arteria thickness ratio: 95%
[1]; 6 mg/kg i.v., 4th day
  Basal arteria thickness ratio: 96%
[1]; 6 mg/kg i.v., 5th day
  Basal arteria thickness ratio: 101%
[1]
  suppression of cerebrovascular contraction subsequent to subarachnoid bleeding: clearly suppressed the cerebrovascular contraction
[2]; Group A, 40 mg/day for 4 days
  CT-low attributable to DIND: 2 out of 9
  cases at grade 1 of ASS: 3 cases
  cases at grade 2 of ASS: 3 cases
  cases at grade 3 of ASS: 3 cases
  incidence of DIND: 2 out of 9
[2]; Group B, 80 mg/day for 4 days
  cases at grade 0 (no caliber change in any arteries): 4 cases
  cases at grade 1 of ASS: 3 cases
  cases at grade 3 of ASS: one
  incidence of DIND: one out of 9
  low density area on CT scan: no case
[2]; Group C, 160 mg/day for 4 days
  incidence of DIND: no case
[2]; Group C, 160 mg/day for 4 days, one month after crisis
  good in GOS (Glasgow Outcome Scale): 4 out of 5
[2]; Groups A, B and C
  subjects with no change or mild degree of contraction (angiographic spasm grading): 64%
  CT low due to spasm: 9%
[2]; Groups A, B and C combined
  ASS Grade 3 (severe): 18%
[2]; Groups A, B and C, control 55%
  incidence of DIND: 13%
[2]; [16]
  good recovery (Glasgow Outcome Scale): 65%
  vegetative survival+death (Glasgow Outcome Scale): 9%
[2]; Groups B and C (higher dosage)
  ASS Grade 3 (severe): 8%
  subjects mild or none in degree of contraction (angiographic spasm grading): 85%
  CT low due to spasm: 0%
[2]; Groups B and C (higher dosage), control 55%
  incidence of DIND: 7%
[2]; [17]
  good recovery (Glasgow Outcome Scale): 71%
  vegetative survival+death (Glasgow Outcome Scale): 0%
[2]; [18]
  inhibition of incidence of delayed ischemic neurological deficit: could inhibit incidence of delayed ischemic neurological deficit
  prognosis of the patient: improve the prognosis of the patient
[3]
  activated partial thromboplastin time (APTT): in the normal ranges
  bleeding time: in the normal ranges
  coagulation time: in the normal ranges
  prothrombin time (PT): in the normal ranges
[4]
  platelet agglutination inhibiting action: concentration dependent platelet agglutination inhibiting action
[5]
  inhibition of C 1r: can inhibit
[6]
  inhibition of C 1s: can inhibit
[7]
  inhibition of factor B: can inhibit
[8]
  inhibition of factor D: can inhibit
[9]
  inhibition of factor XIIa: can inhibit
[10]
  inhibition of factor Xa: can inhibit
[11]
  inhibition of thrombin: can inhibit
[12]
  inhibition of plasma kallikrein: can inhibit
[13]
  inhibition of plasmin: can inhibit
[14]
  inhibition of trypsin: can inhibit
[15]; in vivo
  passage into tissue: quickly passes into tissue
[15]; α phase
  half-life period in blood, α phase: 1.1 min
[15]; β phase
  half-life period in blood, β phase: 23.1 min

## CS(=O)(=O)O.N=C(N)Nc1ccc(C(=O)Oc2ccc(SCCN3C(=O)CCC3=O)cc2)cc1 [4-(2-succinimidoethylthio)phenyl 4-guanidinobenzoate methanesulfonate]
[1]
  suppression of cerebrovascular contraction subsequent to subarachnoid bleeding: clearly suppressed the cerebrovascular contraction subsequent to subarachnoid bleeding, showing the same effect as that of the compound used in Example 1

Source: patent publication US5238964A, “Agent for treatment of cerebrovascular contraction” (Torii & Co., Ltd., priority 1990, dated 1993)
